This note sets out measurements from patent US20190030053A1, “COMPOSITION FOR INCREASING EXPRESSION OF PGC-1alpha” (BENEBIOSIS CO., LTD., priority 2016, published 2019).

Molecules are shown by their SMILES. Entries after “also recorded” stand apart in the source; their conditions may differ.

The test system of test [1] is mouse models with temporary and permanent middle cerebral artery (MCA) occlusion. Description: Ischemic volume (TTC) in stroke models with middle cerebral artery occlusion. Format: in vivo. Particulars: intraperitoneal. An excerpt:
In order to investigate the changes in ischemic volume and modified limb placing test (MLPT) score by treatment with SL (3′-SL & 6′-SL) compositions in stroke models, 4-week-old mice were purchased from Central Lab Animal (Korea). Water was freely accessible, and a commercially available pellet feed (Dooyeul Biotech, Korea) was given for one week. Stroke models involving temporary and permanent middle cerebral artery (MCA) occlusion and intracerebral hemorrhage (ICH) were fabricated using 6-week-old male Sprague-Dawley rats (weight, average 185.3±15.8 g) and male BALB/c mice weight, average 24.6±3.8 g). For the comparison of SL administration effects, the mice, one hour after stroke induction, were randomly grouped into three different intraperitoneal administration groups (8 animals per group, 24 animals in total) below, and then intraperitoneally administered: • Control group: Lysis buffer control group medium intraperitoneal administration group (8 animals) • 3′-SL treatment: 3′-SL lysis buffer medium intraperitoneal administration group (8 animals) • 6′-SL treatment: 6′-SL lysis buffer medium intraperitoneal administration group (8 animals)
Local cerebral infarction mouse models were used as additional cerebral infarction models, and in these models, SL (3′-SL & 6′-SL) was intraperitoneally administered 3 hours after cerebral infarction introduction: • Control group: Lysis buffer control group medium intraperitoneal administration group (8 animals) • 3′-SL treatment: 3′-SL lysis buffer medium intraperitoneal administration group (8 animals) • 6′-SL treatment: 6′-SL lysis buffer medium intraperitoneal administration group (8 animals)
The ischemic volume measurement was conducted by measuring the volume of the ischemic area (infarct and boundary region thereof) using […] (TTC), 24 hours after ischemic induction, as follows. After brain extraction, the frontal tip was cut into 1 mm thickness, and immersed in 2% TCC solution. The stained slices were then fixed with PBS-4% paraformaldehyde, and the ischemic site and hemispherical region of each slice were measured using an image analysis system. The values due to brain edema were corrected as follows: corrected ischemic volume value: measured ischemic area×1−{[(ipsilateral hemisphere area-contralateral hemisphere area)/contralateral hemisphere]}. The ischemic volume was expressed as a percentage of the total hemispherical volume.

For a further test, the system named is PGC-1α and related genes. Description: Gene expression in nerve cell test (Neuro-2a). The format is cell-based, mouse. Particulars: Neuro-2a cells, 0.1 mg/ml, 24 hours. As to the method:
Neuroblasts (Neuro-2a, American Type Culture Collection, USA) were cultured in DMEM supplemented with 10% fetal bovine serum, […], and 0.1 mg/mL streptomycin in each well of 6-well plates at 37° C. in 5% CO2/95% atmospheric conditions. Neuro-2a cells correspond to the fast-growing mouse neuroblastoma cell line. After Neuro-2a cells were seeded at a density of 6000 cells per well, SL was added at a concentration of 0.1 mg/ml into the wells showing a confluency of about 5×10^6 cells/ml, followed by incubation for 24 hours under the same conditions. SL (3′-SL or 6′-SL) materials were the same as those described in Example 1. Unless otherwise stated, SL (3′-SL or 6′-SL) and the use concentrations thereof are understood to be the same as those described in Example 1. The negative control group was treated with physiological saline with 1/1000 of the volume of the medium. The cells treated with each sample were incubated at 37° C. for 24 hours, and then washed twice with cool saline solution, and RNA was extracted using TRIzol agent (Invitrogen). The expression patterns of PGC-1α and related genes were measured by using pre-designed primers and probes (Applied Biosystems; PGC-1α, Mm00447181_m1, GAPDH, and Mm99999915_q1) for the synthesized cDNA and analysis targets (Fndc5, PGC-1α, Erra, UCP1, BDNF, SOD2, and GPX1). […]

Test [2] relates to 6-OHDA induced SD rat Parkinson's disease models. Description: Behavioral ability tests (corner turn and descent, vertical grating device) in Parkinson's disease models. The format is in vivo. Particulars: 6-OHDA SD rats, oral 0.1 mg/kg/day. The text has this: In order to investigate the changes in gene expression and behavior improvement by the treatment with SL (3′-SL & 6′-SL) compositions in Parkinson's brain disease models, 13-week-old normal SD rats and Parkinson's brain disease models were purchased from Central Lab Animal (Korea). Water was freely accessible, and a commercially available pellet feed (Dooyeul Biotech, Korea) was given for one week. At 14 weeks of age, the SD rats were divided into four groups (composed of 8 animals per group): Eight 14-week-old male SD rats (normal rats; initial body weight, average 355.6±32.3 g) treated with a normal diet were used for a control group. The 6-OHDA induced SD rat Parkinson's disease models, which were administered with 6-hydroxydopamine (6-OHDA) at 8 weeks of age and supplied at 13 weeks of age, were randomly divided into three different dietary treatment groups below (8 animals per group), and these diets were maintained from 14 weeks of age for 10 weeks (total 32 animals): • Control group: Normal rats fed with a normal diet without SL administration (8 animals) • (Parkinson's disease model) group: Parkinson's disease models fed with a normal diet without SL administration (8 animals) • (Parkinson's disease model+3′-SL) group: Parkinson's disease models treated with 3′-sialyllactose (3′-SL, Sigma) (oral administration of 0.1 mg per kg of rat weight per day) in addition to the normal diet group (8 animals) • (Parkinson's disease model+6′-SL) group: Parkinson's disease models treated with 6′-sialyllactose (6′-SL, Sigma) (oral administration of 0.1 mg per kg of rat weight per day) in addition to the normal diet group (8 animals)
In FIG. 8, the vertical axis represents the corner turn time and the descent time as a result of carrying out behavioral ability tests (corner turn and descent) using a vertical grating device on a control group, (Parkinson's disease model) group, (Parkinson's disease model+3′-SL) group, and (Parkinson's disease model+6′-SL) group. The vertical grating device was in the form of an opened box of 5 cm×55 cm×8 cm, and the frant face was formed of a wiring of 0.8 cm×0.8 cm and the other surfaces were formed of black plexiglass. The bottom was made 5 cm longer for safety. In the test, the […] were placed in an upward direction at a distance of 3 cm from the top of the device, and were allowed to acclimate to the device three times for two days before testing. The above procedure was repeated if the rat could not come down within 60 seconds. The corner turn time is the time it takes for a rat facing upwards to turn downwards, and the descent time is the time obtained by subtracting the corner turn time from the overall test time for which the rat turns at the corner and descends to the bottom.

As for `CC(=O)N[C@H]1[C@H]([C@H](O)[C@H](O)CO)O[C@@](O[C@H]2[C@@H](O)[C@@H](CO)O[C@@H](O[C@H]3[C@H](O)[C@@H](O)C(O)O[C@@H]3CO)[C@@H]2O)(C(=O)O)C[C@@H]1O` (stereo partly drawn) [3′-SL, α-NeuNAc-(2→3)-β-D-Gal-(1→4)-D-Glc], the “ischemic neuronal damage protective effects” value in test [1] (MCA occlusion models) is reported as “relatively low compared with 6′-SL”. Moreover, the “expression levels of analysis targets (Fndc5, PGC-1α, Erra, UCP1, BDNF, SOD2, GPX1) vs negative control” value with PGC-1α and related genes was “significant increases; also recorded: lower than that of 6′-SL”. Besides, in test [2], the corner turn time entry is recorded as “relatively low compared with 6′-SL” and the descent time result is on record as “relatively low compared with 6′-SL”.

As to `CC(=O)N[C@H]1[C@H]([C@H](O)[C@H](O)CO)O[C@@](OC[C@H]2O[C@@H](O[C@H]3[C@H](O)[C@@H](O)[C@H](O)O[C@@H]3CO)[C@H](O)[C@@H](O)[C@H]2O)(C(=O)O)C[C@@H]1O` [6′-SL, α-NeuNAc-(2→6)-β-D-Gal-(1→4)-D-Glc], the “reduction of ischemic volume” value in test [1] (all models, 24 hours after ischemic induction) is given as “about 50%”; in test [1] (local cerebellar permanent ischemia models) it was 50%; in test [1] (local cerebellar temporal ischemia models), 60%; in test [1] (local cerebral permanent occlusion models), 40%. For the same compound, in the test on PGC-1α and related genes, the “expression levels of analysis targets (Fndc5, PGC-1α, Erra, UCP1, BDNF, SOD2, GPX1) vs negative control” value is listed as “significant increases”. Moreover, the corner turn time entry in test [2] was “almost similar to those in the control group”. Also, the descent time entry in test [2] is “almost similar to those in the control group”.
